Laboratory results from US20020049157A1, “Use of proteasome inhibitors for treating cancer, inflammation, autoimmune disease, graft rejection and septic shock” (priority 1998, published 2002).

Columns and labels:
Tonsillar B cells = experiment: B cell proliferation induced with SAC plus IL-2 (3H-thymidine uptake); format: cell-based, human
Experimental: Lymphocytes were stimulated with various mitogens as indicated, and LAC at different concentrations was added at the beginning of the cultures. The cells were pulsed with 3H-thymidine between 48 h and 64 h. Samples were in triplicates. All the experiments were performed at least three times and similar results were obtained. Representative results are shown.
D: Tonsillar B cells stimulated with SAC (1:15,000 dilution) and IL-2 (100 μ/ml).
The role of proteasome in T cell activation and proliferation was first examined in PBMC, using the proteasome-specific inhibitor LAC. The PBMC were activated with various stimulants. LAC was added to the cells in the beginning of the culture (0 h) along with the stimulants. ^3H-thymidine uptake between 48 h and 64 h of 64 h cultures was used as a parameter for cell proliferation. […] Rather, it likely affects certain downstream events governing a more general process(es) in lymphocyte activation and proliferation.
Peripheral blood mononuclear cells (PBMC) and tonsillar T cells were prepared as described before (Luo et al., 1992, Transplantation 53:1071; Luo et al., 1993, Clin. & Exp. Immunol. 94:371). The cells were cultured in RPMI 1640 supplemented with 10% FCS, L-glutamine and antibiotics. ^3H-thymidine uptake was carried out as described previously (Luo et al., 1992, supra; Luo et al., 1993, supra).

Jurkat cells = experiment: Jurkat cell viability by trypan blue exclusion; format: cell-based; settings: 6 μM LAC
Experimental: (§1) Tonsillar T cells (A, B, and D) and Jurkat cells (C and E) were treated with LAC (10 μM for T cells and 6 μM for Jurkat cells). LAC was added at the beginning of the culture or 40 h after T cell activation as indicated. The cells were harvested at the time points as shown. They were evaluated for their viability with trypan blue exclusion (A, B, and C), and for their mode of cell death according to DNA fragmentation (D and E). The effect of LAC on Jurkat cells was quite similar to that on the activated T cells.

C57BL/6 spleen cells = experiment: Mixed lymphocyte culture (MLR), alloantigen-specific response; format: cell-based, mouse; settings: MLR treated on day 2 with LAC 8 μM for 3 h; restimulated after 8 days
Experimental: The C57BL/6 spleen cells (H-2^b) were stimulated with mitomycin c-treated BALB/c spleen cells (H-2^d). On day 2 when most of the H-2^d-specific cells were activated, the mixed lymphocyte culture (MLR) was treated with lactacystin (LAC, 8 μM) for 3 h. After wash, the cells were put back in culture for additional 8 days, and then stimulated with either fresh BALB/c or C3H (H-2^k) spleen cells. […] The difference is more pronounced in day three of the culture.
It is therefore an embodiment of this invention to use proteasome inhibitors, particularly lactacystin in transplantation and autoimmune diseases where certain undesirable activated T cells can be repressed or eliminated and the rest of the T cell population is generally unaffected by such inhibitors.

[1] = Activity of LAC in culture supernatants / medium over time; format: physicochemical; settings: for inhibitory activity of LAC-conditioned media on proteasome activity of fresh Jurkat cells: LAC 6 μM
Experimental: C. The activity of LAC in culture supernatants is short-lived LAC (6 μM) was added to Jurkat cell culture (0.5×10^6 cells/ml). The supernatants were harvested at 4 h, 6 h, 16 h and 24 h. These conditioned media were used to culture fresh Jurkat cells for 3 h. The cells were then harvested and assayed for the proteasome activity as described in FIG. 4B. Samples were in duplicates.
We also investigated whether LAC was stable in the culture supernatant. LAC (6 μM) was added to Jurkat cells culture for 4 h, 6 h, 16 h or 24 h. The conditioned medium was harvested and used to treat fresh Jurkat cells for 3 h, and then the proteasome activity in the lysates of the fresh Jurkat cells was assayed. […] The loss of LAC activity in the 16 h and 24 h conditioned medium is unlikely due to trapping of LAC by proteasomes released by dead Jurkat cells, because LAC could rapidly enter the live cells and the equilibrium of the LAC concentration between both sides of the cytoplasmic membrane should be established very fast. Thus, the proteasomes whether released or not should not make a difference in terms of trapping LAC. Besides, we have also noticed that LAC kept in cell free culture medium at 4° C. would lose its activity within 24 h (data not shown).

Tonsillar T cells = experiment: DNA fragmentation (DNA laddering) in T cells; format: cell-based, human
Experimental: as §1, with “E).” for “E). The effect of LAC on Jurkat cells was quite similar to that on the activated T cells.”
We next employed DNA laddering to study the mode of cell death caused by LAC, and the result of this experiment also reflected the degree of cell death after different treatments. […] After 24 h of LAC treatment, the ladders became less discrete, and this probably reflected further DNA breakdown.
The assay was performed according to a protocol described by Liu et al (Liu et al., 1997, Cell. 89:175) with some modifications. Briefly, 2-6 million cells were re-suspended in 50 μl PBS followed by 300 μl lysis buffer (100 mM Tris-HCl, pH 8.0, 5 mM EDTA, 0.2 M NaCl. 0.2% w/v SDS, and 0.2 mg/ml proteinase K). After overnight incubation at 37° C., 350 μl of 3M NaCl was added to the mixture and cell debris was removed by centrifugation at 13000 g for 20 min at room temperature. DNA in the supernatant was precipitated with an equal volume of 100% ethanol. […]

inhibitory activity of LAC-conditioned media on proteasome activity of fresh Jurkat cells ([1]; media conditioned 16 h and 24 h): lost their inhibitory effect
time in which LAC loses its activity ([1]; cell free culture medium at 4° C., data not shown): ≤ 24 h
SMILES: CC(=O)N[C@@H](CSC(=O)[C@]1([C@@H](O)C(C)C)NC(=O)[C@H](C)[C@@H]1O)C(=O)O [LAC, lactacystin]
inhibition of B cell proliferation (3H-thymidine uptake) (Tonsillar B cells; LAC added at 0 h): potently inhibited
extent of inhibition of B cell proliferation (Tonsillar B cells; LAC at 5 μM): near-to-maximal inhibition
trypan blue positive cells (Jurkat cells; 24 h culture): about 60%
cell death (trypan blue) (Jurkat cells; less than 8 h exposure): did not induce apparent Jurkat cell death
response to restimulation with BALB/c cells (C57BL/6 spleen cells): failed to respond to the BALB/c cells
response to restimulation with third party C3H cells (C57BL/6 spleen cells): respond well to third party C3H
inhibitory activity of LAC-conditioned media on proteasome activity of fresh Jurkat cells ([1]; media conditioned up to 6 h): could still actively inhibit the enzymatic activity
DNA breakdown (DNA laddering) (Tonsillar T cells; activated T cells (40 h post PHA), LAC for additional 9 h): clear DNA ladders
DNA breakdown (DNA laddering) (Tonsillar T cells; resting T cells, 10 μM LAC, 24 h): no apparent DNA breakdown
